Reference: ChEMBL document CHEMBL5724914, “Linking interpersonal differences in gut microbiota composition and drug biotransformation activity” (2024)

Columns and labels:
[1] = human gut metagenome, 24 h, 2 µM
[2] = The drug is tested on Z-024 corresponding to pig gut metagenome with ENA study accession number: PRJEB37062 and ENA sample accession number: ERS12561823 for biotransformation under anaerobic condition. The drug concentrations were measured over 9 timepoints collected between 0 and 24 hours of incubation by liquid-chromatography-coupled mass spectrometry (LC–MS); conditions: 2 µM
[3] = The drug is tested on Z-006 corresponding to mouse gut metagenome with ENA study accession number: PRJEB37062 and ENA sample accession number: ERS12561806 for biotransformation under anaerobic condition. The drug concentrations were measured over 9 timepoints collected between 0 and 24 hours of incubation by liquid-chromatography-coupled mass spectrometry (LC–MS); conditions: 2 µM
[4] = The drug is tested on WLS-220 corresponding to human gut metagenome with ENA study accession number: PRJEB37062 and ENA sample accession number: ERS12561769 for biotransformation under anaerobic condition. The drug concentrations were measured over 9 timepoints collected between 0 and 24 hours of incubation by liquid-chromatography-coupled mass spectrometry (LC–MS); conditions: 2 µM
[5] = The drug is tested on WLS-010 corresponding to human gut metagenome with ENA study accession number: PRJEB37062 and ENA sample accession number: ERS12561743 for biotransformation under anaerobic condition. The drug concentrations were measured over 9 timepoints collected between 0 and 24 hours of incubation by liquid-chromatography-coupled mass spectrometry (LC–MS); conditions: 2 µM
[6] = human gut metagenome, 24 h, 2 µM; remark: listed apart in the source
[7] = human gut metagenome, 24 h, 2 µM; remark: listed apart in the source
[8] = The drug is tested on WLS-073 corresponding to human gut metagenome with ENA study accession number: PRJEB37062 and ENA sample accession number: ERS12561749 for biotransformation under anaerobic condition. The drug concentrations were measured over 9 timepoints collected between 0 and 24 hours of incubation by liquid-chromatography-coupled mass spectrometry (LC–MS); conditions: 2 µM
[9] = human gut metagenome, 24 h, 2 µM; remark: listed apart in the source
[10] = The drug is tested on Z-021 corresponding to metagenome with ENA study accession number: PRJEB37062 and ENA sample accession number: ERS12561820 for biotransformation under anaerobic condition. The drug concentrations were measured over 9 timepoints collected between 0 and 24 hours of incubation by liquid-chromatography-coupled mass spectrometry (LC–MS); conditions: 2 µM
[11] = human gut metagenome, 24 h, 2 µM; remark: listed apart in the source
[12] = The drug is tested on WLS-350 corresponding to human gut metagenome with ENA study accession number: PRJEB37062 and ENA sample accession number: ERS12561789 for biotransformation under anaerobic condition. The drug concentrations were measured over 9 timepoints collected between 0 and 24 hours of incubation by liquid-chromatography-coupled mass spectrometry (LC–MS); conditions: 2 µM
[13] = human gut metagenome, 24 h, 2 µM; remark: listed apart in the source
[14] = human gut metagenome, 24 h, 2 µM; remark: listed apart in the source
[15] = The drug is tested on WLS-170 corresponding to human gut metagenome with ENA study accession number: PRJEB37062 and ENA sample accession number: ERS12561762 for biotransformation under anaerobic condition. The drug concentrations were measured over 9 timepoints collected between 0 and 24 hours of incubation by liquid-chromatography-coupled mass spectrometry (LC–MS); conditions: 2 µM
[16] = The drug is tested on WLS-038 corresponding to human gut metagenome with ENA study accession number: PRJEB37062 and ENA sample accession number: ERS12561745 for biotransformation under anaerobic condition. The drug concentrations were measured over 9 timepoints collected between 0 and 24 hours of incubation by liquid-chromatography-coupled mass spectrometry (LC–MS); conditions: 2 µM
[17] = human gut metagenome, 24 h, 2 µM; remark: listed apart in the source
[18] = human gut metagenome, 24 h, 2 µM; remark: listed apart in the source
[19] = The drug is tested on Z-016 corresponding to mouse gut metagenome with ENA study accession number: PRJEB37062 and ENA sample accession number: ERS12561815 for biotransformation under anaerobic condition. The drug concentrations were measured over 9 timepoints collected between 0 and 24 hours of incubation by liquid-chromatography-coupled mass spectrometry (LC–MS); conditions: 2 µM
[20] = The drug is tested on WLS-027 corresponding to human gut metagenome with ENA study accession number: PRJEB37062 and ENA sample accession number: ERS12561744 for biotransformation under anaerobic condition. The drug concentrations were measured over 9 timepoints collected between 0 and 24 hours of incubation by liquid-chromatography-coupled mass spectrometry (LC–MS); conditions: 2 µM

Measured: Bacterial Biotransformation
Further: call rule not given here.

O=C(O)CCC(=O)O.O=C(O[C@H]1CN2CCC1CC2)N1CCc2ccccc2[C@@H]1c1ccccc1 [SOLIFENACIN SUCCINATE]
Compound NOT metabolized: [3] | [4] | [6] | [11] | [13] | [15] | [19]
Compound metabolized: [1] | [2] | [5] | [7] | [8] | [9] | [10] | [12] | [14] | [16] | [17] | [18] | [20]

COc1cc2nc(N3CCN(C(=O)C4CCCO4)CC3)nc(N)c2cc1OC (stereo not given) [TERAZOSIN]
Compound NOT metabolized: [2] | [3] | [5] | [7] | [10] | [11] | [12] | [13] | [15] | [16] | [18] | [19] | [20]
Compound metabolized: [1] | [4] | [6] | [8] | [9] | [14] | [17]

CC(C)[C@H]1CC[C@H](C(=O)N[C@H](Cc2ccccc2)C(=O)O)CC1 [NATEGLINIDE]
Compound NOT metabolized: [3]
Compound metabolized: [1] | [2] | [4] | [5] | [6] | [7] | [8] | [9] | [10] | [11] | [12] | [13] | [14] | [15] | [16] | [17] | [18] | [19] | [20]

CCN(C)C(=O)Oc1cccc([C@H](C)N(C)C)c1.O=C(O)C(O)C(O)C(=O)O [RIVASTIGMINE TARTRATE]
Compound metabolized: [6] | [9] | [16] | [17]
Compound NOT metabolized: [1] | [2] | [3] | [4] | [5] | [7] | [8] | [10] | [11] | [12] | [13] | [14] | [15] | [18] | [19] | [20]

CC(C)C[C@H]1C(=O)N2CCC[C@H]2[C@]2(O)O[C@](NC(=O)[C@@H]3C=C4c5cccc6[nH]c(Br)c(c56)C[C@H]4N(C)C3)(C(C)C)C(=O)N12.CS(=O)(=O)O [BROMOCRIPTINE MESYLATE]
Compound NOT metabolized: [7] | [13]
Compound metabolized: [1] | [2] | [3] | [4] | [5] | [6] | [8] | [9] | [10] | [11] | [12] | [14] | [15] | [16] | [17] | [18] | [19] | [20]
